Test results: ChEMBL document CHEMBL1130408, “Repromicin derivatives with potent antibacterial activity against Pasteurella multocida” (1997)
Converted amounts (≈) assume the structure as drawn.

Assays:
[1] = tested on: Pasteurella multocida; experiment: Minimum inhibitory concentration required to inhibit Pasteurella multocida 59A006 in vitro; type: functional
[2] = organism: Mus musculus; experiment: Protected dose which protects 50% of challenged mice from death owing to the Pasteurella multocida (59A006) infection; type: functional; details: read-out: PD50

SMILES | MIC [1] [µg/mL] | ED50 [2] [mg/kg]
CC[C@H]1OC(=O)CC(O)[C@H](C)[C@@H](O[C@@H]2O[C@H](C)[C@@H](O)[C@H](N(C)C)[C@H]2O)[C@@H](CCN(C)CCCNC)C[C@@H](C)C(=O)/C=C/C(C)=C/[C@@H]1CO[C@@H]1O[C@H](C)[C@@H](O)[C@@H](OC)[C@H]1OC (stereo partly specified) | 25 (≈ 29.1 µM) | –
CC[C@H]1OC(=O)CC(O)[C@H](C)[C@@H](O[C@@H]2O[C@H](C)C[C@H](N(C)C)[C@H]2O)[C@@H](CCNCCO)C[C@@H](C)C(=O)/C=C/C(C)=C/[C@@H]1C (stereo partly specified) | 0.2 (≈ 0.327 µM) | 10
CC[C@H]1OC(=O)CC(O)[C@H](C)[C@@H](O[C@@H]2O[C@H](C)C[C@H](N(C)C)[C@H]2O)[C@@H](CCNCCCN(C)C)C[C@@H](C)C(=O)/C=C/C(C)=C/[C@@H]1C (stereo partly specified) | 0.39 (≈ 0.598 µM) | 5
CC[C@H]1OC(=O)CC(O)[C@H](C)[C@@H](O[C@@H]2O[C@H](C)C[C@H](N(C)C)[C@H]2O)[C@@H](CCN(CCCN(C)C)C(C)=O)C[C@@H](C)C(=O)/C=C/C(C)=C/[C@@H]1C (stereo partly specified) | 0.39 (≈ 0.562 µM) | > 25
CC[C@H]1OC(=O)CC(O)[C@H](C)[C@@H](O[C@@H]2O[C@H](C)C[C@H](N(C)C)[C@H]2O)[C@@H](CCN(CC)CC)C[C@@H](C)C(=O)/C=C/C(C)=C/[C@@H]1C (stereo partly specified) | 0.39 (≈ 0.626 µM) | 141
CC[C@H]1OC(=O)CC(O)[C@H](C)[C@@H](O[C@@H]2O[C@H](C)C[C@H](N(C)C)[C@H]2O)[C@@H](CCN(C)CCN(C)C(=O)[C@H](C)N)C[C@@H](C)C(=O)/C=C/C(C)=C/[C@@H]1C (stereo partly specified) | 0.05 (≈ 0.0705 µM) | 12
CC[C@H]1OC(=O)CC(O)[C@H](C)[C@@H](O[C@@H]2O[C@H](C)C[C@H](N(C)C)[C@H]2O)[C@@H](CCN(CCCN(C)C)C(=O)CNC)C[C@@H](C)C(=O)/C=C/C(C)=C/[C@@H]1C (stereo partly specified) | 1.56 (≈ 2.16 µM) | 6
CCNCC[C@H]1C[C@@H](C)C(=O)/C=C/C(C)=C/[C@H](C)[C@@H](CC)OC(=O)CC(O)[C@H](C)[C@H]1O[C@@H]1O[C@H](C)C[C@H](N(C)C)[C@H]1O (stereo partly specified) | 0.2 (≈ 0.336 µM) | > 150
CCC1OC(=O)CC(O)C(C)C(O[C@@H]2O[C@H](C)C[C@H](N(C)C)[C@H]2O)C(CC=O)CC(C)C(=O)/C=C/C(C)=C/C1C (stereo partly specified) | 0.39 (≈ 0.689 µM) | > 200
CC[C@H]1OC(=O)CC(O)[C@H](C)[C@@H](O[C@@H]2O[C@H](C)C[C@H](N(C)C)[C@H]2O)[C@@H](CCN2CCCC2)C[C@@H](C)C(=O)/C=C/[C@]2(C)O[C@H]2[C@@H]1C (stereo partly specified) | 0.78 (≈ 1.22 µM) | > 150
CC[C@H]1OC(=O)CC(O)[C@H](C)[C@@H](O[C@@H]2O[C@H](C)[C@@H](O)[C@H](N(C)C)[C@H]2O)[C@@H](CCNCCCN(C)C)C[C@@H](C)C(=O)/C=C/C(C)=C/[C@@H]1CO[C@@H]1O[C@H](C)[C@@H](O)[C@@H](OC)[C@H]1OC (stereo partly specified) | 12.5 (≈ 14.6 µM) | –
CC[C@H]1OC(=O)C[C@@H](O)[C@H](C)[C@@H](O[C@@H]2O[C@H](C)[C@@H](O[C@H]3C[C@@](C)(O)[C@@H](O)[C@H](C)O3)[C@H](N(C)C)[C@H]2O)[C@@H](CC=O)C[C@@H](C)C(=O)/C=C/C(C)=C/[C@@H]1CO[C@@H]1O[C@H](C)[C@@H](O)[C@@H](OC)[C@H]1OC [TYLOSIN] | 25 (≈ 27.3 µM) | 86
CC[C@H]1OC(=O)C[C@@H](O)[C@H](C)[C@@H](O[C@@H]2O[C@H](C)C[C@H](N(C)C)[C@H]2O)[C@@H](CC=O)C[C@@H](C)C(=O)/C=C/[C@]2(C)O[C@H]2[C@@H]1C [ROSARAMICIN] | 0.2 (≈ 0.344 µM) | 68
CC[C@H]1OC(=O)CC(O)[C@H](C)[C@@H](O[C@@H]2O[C@H](C)C[C@H](N(C)C)[C@H]2O)[C@@H](CCN(CCO)CCO)C[C@@H](C)C(=O)/C=C/C(C)=C/[C@@H]1C (stereo partly specified) | 0.2 (≈ 0.305 µM) | 41
CC[C@H]1OC(=O)CC(O)[C@H](C)[C@@H](O[C@@H]2O[C@H](C)C[C@H](N(C)C)[C@H]2O)[C@@H](CCN2CCOCC2)C[C@@H](C)C(=O)/C=C/C(C)=C/[C@@H]1C (stereo partly specified) | 0.78 (≈ 1.22 µM) | > 150
CC[C@H]1OC(=O)CC(O)[C@H](C)[C@@H](O[C@@H]2O[C@H](C)C[C@H](N(C)C)[C@H]2O)[C@@H](CCN(C)CCNC)C[C@@H](C)C(=O)/C=C/C(C)=C/[C@@H]1C (stereo partly specified) | 0.2 (≈ 0.314 µM) | > 20
CC[C@H]1OC(=O)CC(O)[C@H](C)[C@@H](O[C@@H]2O[C@H](C)C[C@H](N(C)C)[C@H]2O)[C@@H](CCNCC(O)CO)C[C@@H](C)C(=O)/C=C/C(C)=C/[C@@H]1C (stereo partly specified) | 0.39 (≈ 0.609 µM) | 10
CC[C@H]1OC(=O)CC(O)[C@H](C)[C@@H](O[C@@H]2O[C@H](C)C[C@H](N(C)C)[C@H]2O)[C@@H](CCN(CC)CC)C[C@@H](C)C(=O)/C=C/[C@]2(C)O[C@H]2[C@@H]1C (stereo partly specified) | 0.78 (≈ 1.22 µM) | 123
CC[C@H]1OC(=O)CC(O)[C@H](C)[C@@H](O[C@@H]2O[C@H](C)C[C@H](N(C)C)[C@H]2O)[C@@H](CCN(C)CCO)C[C@@H](C)C(=O)/C=C/C(C)=C/[C@@H]1C (stereo partly specified) | 0.2 (≈ 0.32 µM) | 45
CC[C@H]1OC(=O)CC(O)[C@H](C)[C@@H](O[C@@H]2O[C@H](C)C[C@H](N(C)C)[C@H]2O)[C@@H](CCNCC(C)(C)CO)C[C@@H](C)C(=O)/C=C/C(C)=C/[C@@H]1C (stereo partly specified) | 0.05 (≈ 0.0766 µM) | 26

SMILES | MIC [1] [µg/mL] | ED50 [2] [mg/kg]
CO[C@@H]1[C@@H](O[C@@H]2O[C@H](C)[C@@H](O[C@H]3C[C@@](C)(O)[C@@H](OC(=O)CC(C)C)[C@H](C)O3)[C@H](N(C)C)[C@H]2O)[C@@H](CC=O)C[C@@H](C)C(=O)/C=C/[C@@H]2O[C@H]2C[C@@H](C)OC(=O)C[C@H]1OC(C)=O [CARBOMYCIN A] | 1.56 (≈ 1.85 µM) | > 150
CC[C@H]1OC(=O)CC(O)[C@H](C)[C@@H](O[C@@H]2O[C@H](C)C[C@H](N(C)C)[C@H]2O)[C@@H](CCNC2C(O)CCCC2O)C[C@@H](C)C(=O)/C=C/C(C)=C/[C@@H]1C (stereo partly specified) | 0.2 (≈ 0.294 µM) | 11
CC[C@H]1OC(=O)CC(O)[C@H](C)[C@@H](O[C@@H]2O[C@H](C)C[C@H](N(C)C)[C@H]2O)[C@@H](CCN(C)CCCNC)C[C@@H](C)C(=O)/C=C/C(C)=C/[C@@H]1C (stereo partly specified) | 0.78 (≈ 1.2 µM) | 4
CC[C@H]1OC(=O)CC(O)[C@H](C)[C@@H](O[C@@H]2O[C@H](C)C[C@H](N(C)C)[C@H]2O)[C@@H](CCN2CC(C)CC(C)C2)C[C@@H](C)C(=O)/C=C/[C@]2(C)O[C@H]2[C@@H]1C (stereo partly specified) | 0.2 (≈ 0.295 µM) | > 150
CC[C@H]1OC(=O)CC(O)[C@H](C)[C@@H](O[C@@H]2O[C@H](C)C[C@H](N(C)C)[C@H]2O)[C@@H](CCN2CCCCC2)C[C@@H](C)C(=O)/C=C/[C@]2(C)O[C@H]2[C@@H]1C (stereo partly specified) | 0.2 (≈ 0.307 µM) | 114
CC[C@H]1OC(=O)CC(O)[C@H](C)[C@@H](O[C@@H]2O[C@H](C)C[C@H](N(C)C)[C@H]2O)[C@@H](CCN2CCN(C)CC2)C[C@@H](C)C(=O)/C=C/C(C)=C/[C@@H]1C (stereo partly specified) | 0.39 (≈ 0.6 µM) | > 150
CC[C@H]1OC(=O)CC(O)[C@H](C)[C@@H](O[C@@H]2O[C@H](C)C[C@H](N(C)C)[C@H]2O)[C@@H](CCN(C)CCCN(C)C)C[C@@H](C)C(=O)/C=C/C(C)=C/[C@@H]1C (stereo partly specified) | 0.1 (≈ 0.15 µM) | 26
CC[C@H]1OC(=O)CC(O)[C@H](C)[C@@H](O[C@@H]2O[C@H](C)C[C@H](N(C)C)[C@H]2O)[C@@H](CCN(CCCN(C)C)C(=O)[C@H](C)N)C[C@@H](C)C(=O)/C=C/C(C)=C/[C@@H]1C (stereo partly specified) | 0.39 (≈ 0.539 µM) | 3
CC[C@H]1OC(=O)CC(O)[C@H](C)[C@@H](O[C@@H]2O[C@H](C)C[C@H](N(C)C)[C@H]2O)[C@@H](CCN2CCCCCC2)C[C@@H](C)C(=O)/C=C/C(C)=C/[C@@H]1C (stereo partly specified) | 0.1 (≈ 0.154 µM) | > 200
CC[C@H]1OC(=O)CC(O)[C@H](C)[C@@H](O[C@@H]2O[C@H](C)[C@@H](O)[C@H](N(C)C)[C@H]2O)[C@@H](CCN(C)CCCN(C)C)C[C@@H](C)C(=O)/C=C/C(C)=C/[C@@H]1CO[C@@H]1O[C@H](C)[C@@H](O)[C@@H](OC)[C@H]1OC (stereo partly specified) | 3.13 (≈ 3.59 µM) | 41
CO[C@@H]1[C@@H](O[C@@H]2O[C@H](C)[C@@H](O[C@H]3C[C@@](C)(O)[C@@H](OC(=O)CC(C)C)[C@@H](C)O3)[C@@H](N(C)C)[C@H]2O)[C@@H](CC=O)C[C@@H](C)C(=O)/C=C/C=C/C[C@@H](C)OC(=O)C[C@H]1OC(C)=O | 6.25 (≈ 7.57 µM) | > 150
CC[C@H]1OC(=O)CC(O)[C@H](C)[C@@H](O[C@@H]2O[C@H](C)C[C@H](N(C)C)[C@H]2O)[C@@H](CCN(C)CCN(C)C(=O)CN)C[C@@H](C)C(=O)/C=C/C(C)=C/[C@@H]1C (stereo partly specified) | 0.2 (≈ 0.288 µM) | 4
CC[C@H]1OC(=O)CC(O)[C@H](C)[C@@H](O[C@@H]2O[C@H](C)C[C@H](N(C)C)[C@H]2O)[C@@H](CCN(CCCN(C)C)C(=O)CN)C[C@@H](C)C(=O)/C=C/C(C)=C/[C@@H]1C (stereo partly specified) | 0.78 (≈ 1.1 µM) | 4
CC[C@H]1OC(=O)CC(O)[C@H](C)[C@@H](O[C@@H]2O[C@H](C)C[C@H](N(C)C)[C@H]2O)[C@@H](CCNCCN(C)C)C[C@@H](C)C(=O)/C=C/C(C)=C/[C@@H]1C (stereo partly specified) | 0.2 (≈ 0.314 µM) | 100
CC[C@H]1OC(=O)CC(O)[C@H](C)[C@@H](O[C@@H]2O[C@H](C)[C@@H](O)[C@H](N(C)C)[C@H]2O)[C@@H](CCN(C)CCN(C)C)C[C@@H](C)C(=O)/C=C/C(C)=C/[C@@H]1CO[C@@H]1O[C@H](C)[C@@H](O)[C@@H](OC)[C@H]1OC (stereo partly specified) | 3.13 (≈ 3.65 µM) | > 50
CC[C@H]1OC(=O)CC(O)[C@H](C)[C@@H](O[C@@H]2O[C@H](C)C[C@H](N(C)C)[C@H]2O)[C@@H](CCN2CCC2)C[C@@H](C)C(=O)/C=C/C(C)=C/[C@@H]1C (stereo partly specified) | 0.2 (≈ 0.33 µM) | 46
CC[C@H]1OC(=O)CC(O)[C@H](C)[C@@H](O[C@@H]2O[C@H](C)C[C@H](N(C)C)[C@H]2O)[C@@H](CCN(C)CCCN(C)C(=O)CNC)C[C@@H](C)C(=O)/C=C/C(C)=C/[C@@H]1C (stereo partly specified) | 0.39 (≈ 0.539 µM) | 6
CC[C@H]1OC(=O)CC(O)[C@H](C)[C@@H](O[C@@H]2O[C@H](C)C[C@H](N(C)C)[C@H]2O)[C@@H](CCN2CC(O)C2)C[C@@H](C)C(=O)/C=C/C(C)=C/[C@@H]1C (stereo partly specified) | 0.2 (≈ 0.321 µM) | 19
CC[C@H]1OC(=O)CC(O)[C@H](C)[C@@H](O[C@@H]2O[C@H](C)C[C@H](N(C)C)[C@H]2O)[C@@H](CCN2CCCC2)C[C@@H](C)C(=O)/C=C/C(C)=C/[C@@H]1C (stereo partly specified) | 0.39 (≈ 0.628 µM) | 128
